Assay results taken from patent US12209142B2, “SARS-CoV-2 epitope-targeted peptide immunostimulants” (Institute for Systems Biology, priority 2020, dated 2025).
Values joined by “and” are separate entries in the source; they are usually repeats but may differ in a detail not shown here. Identical values can stand only once. Bridges are numbered along the chain shown (N, C = ends). Where no end group is shown, it is not given here. [ ]: non-standard residue; d: D form. Lys(N3) = [N-]=[N+]=NCCCC[C@H](N)C(=O)O; Pra = C#CC[C@H](N)C(=O)O

How the values were obtained:
Type in all cases: cell-based, Klebsiella pneumoniae
[1] = system: K. pneumoniae cells (strain BAA 2146); experiment: Flow cytometry of AR-PCC-driven opsonization by anti-DNP antibodies; settings: cy(LLFFF)-DNP 1 or 5 μM, cy(HNGPT) control 50 μM, plus fluorescent anti-DNP
[2] = system: K. pneumoniae cells, BAA 1705 and BAA 2146; experiment: Whole-cell ELISA of anti-DNP recruitment to bacterial cell surfaces; settings: AR-PCC plus anti-DNP; cy(LLFFF)-DNP 5 or 10 μM, cy(HNGPT)-DNP 50 and 100 μM
Excerpt: FIG. 12 is a plot of 450 nm absorbances obtained from a cell-based ELISA assay conducted on two strains of K. pneumoniae cells, BAA 1705 (black) and BAA 2146 (grey), that were either untreated or opsonized by EPIs (AR-PCCs) and/or antibodies. […] This establishes EPI-driven opsonization by cy(LLFFF)-DNP (SEQ ID NO:5). […] This indicates opsonization by cy(LLFFF)-DNP (SEQ ID NO:5) is specific and is driven by the ligand cy(LLFFF) (SEQ ID NO:5), rather than the Lys(DNP) moiety.
The protocol for detecting anti-DNP recruitment to bacterial cell surfaces is as follows. […] After washing, bacteria were incubated with HRP conjugated secondary antibody (Bio-Rad) at a dilution of 1:10,000 for 1 h at 37° C. Unbound antibody was washed off by using PBS-BSA and the cells were then developed by using TMB reagent. […] Anti-MrkA antibody was procured from Biorbyt (orb51318) and used at a concentration of 5 μg/mL, and K. pneumoniae antiserum was obtained from abcam (ab20947) and used at a concentration of 5 μg/mL.

[3] = system: K. pneumoniae cells (strain BAA 1705); experiment: Gentamicin protection assay: phagocytosis and opsonophagocytic killing (OPK) by macrophages; settings: 1 h
Description: FIGS. 7A and 7B show a gentamicin protection assay that evaluates EPI-driven phagocytosis and opsonophagocytic killing (OPK) of K. pneumoniae cells by murine bone-marrow-derived macrophages. FIG. 7A is a flow diagram depicting the assay used to evaluate EPI-driven opsonophagocytic killing (OPK) of K. pneumoniae cells. Briefly, K. pneumoniae cells (strain BAA 1705) opsonized by EPIs (AR-PCCs) and anti-DNP antibodies were incubated with macrophages for 1 or 24 h. Macrophages were lysed, and the lysate was plated to obtain bacterial colonies that were subsequently counted. FIG. 7B is a plot of colony counts for various samples subjected to the OPK assay. […] All EPIs (AR-PCCs) were used at a 5 μM concentration, measurements were conducted in triplicate, and error bars reflect standard deviations. cy(LLFFA) is SEQ ID NO:11.
It also tested whether DNP-conjugated EPIs could promote the opsonophagocytic killing (OPK) of K. pneumoniae by macrophages. This was tested by using an OPK assay. Briefly, K. pneumoniae cells were treated with EPI and then anti-DNP antibody before being exposed to macrophages for either 6 or 24 hours. During this incubation period, macrophages that recognize K. pneumoniae cells will phagocytose them, and phagocytosed bacteria will remain viable for up to 6 hours, but within 24 hours are rendered inviable by OPK. Thus, macrophages were isolated after 6 and 24 hours of incubation with K. pneumoniae, lysed them, and plated and grew the lysate, which yielded bacterial colonies that reflect the phagocytosis (at 6 hrs) or OPK (at 24 hrs) of bacteria.
Given that cy(LLFFF)-DNP (SEQ ID NO:5) recruits antibodies to K. pneumoniae surfaces, it was expected that K. pneumoniae opsonized in this manner would be more susceptible to phagocytosis by macrophages. AR-PCC-driven phagocytosis and OPK were quantified by a gentamicin protection assay, as depicted in FIG. 7A. For this assay, K. pneumoniae cells (strain BAA 1705) were treated with cy(LLFFF)-DNP (SEQ ID NO:5), opsonized by anti-DNP antibodies, and then incubated with murine bone-marrow-derived macrophages (BMDMs). BMDMs were subsequently exposed to a solution containing gentamicin, to which K. pneumoniae strain BAA 1705 is susceptible, to kill any extracellular bacteria. Phagocytosed bacteria remain viable inside BMDMs for at least 1 h, yet are rendered inviable after 24 h by OPK (FIG. 13). Macrophages harvested at 1 h and 24 h were lysed and plated to generate bacterial colonies, which were enumerated to quantify phagocytosis and OPK.
Opsonophagocytic killing (OPK) assays. Klebsiella pneumoniae BAA1705 was treated with DNP-PCCs followed by incubation with anti-DNP antibody, as described above in the “Cell-Based ELISAs” section. These opsonized bacteria were then used to infect BMDMs at a multiplicity of infection of 50 for 0.5 h at 37° C. Bacteria were then washed by using RPMI 1640 Media and BMDMs were left in cell culture medium containing gentamicin (100 μg/ml). After 1 h and 24 h BMDMs were washed to remove gentamicin and intracellular bacteria were harvested by lysing BMDMs in RPMI media containing 0.2% Triton X 100. Bacterial CFUs were enumerated by plating onto LB agar. Bacterial counts at 1 h indicated the degree of opsonization while those at 24 h served as a measure of microbicidal activity of macrophages. For these measurements, anti-MrkA antibody and K. pneumoniae antiserum were used at dilutions of 5 μg/mL each.

cy(LLFFF)-DNP: cy(LLFFF) tagged with a DNP-modified lysine residue; lead AR-PCC ([Pra]LLFFF[Lys(N3)]; bridge 1-7; not fully specified (bridges); printed as cy(LLFFF)-DNP; also: tagged with a DNP-modified lysine residue, position not given here)
fluorescence of cells (opsonization by anti-DNP) [1]: much higher fluorescence
450 nm absorbance, anti-DNP recruitment to cells [2]: much larger signal
phagocytosis at 1 h, AR-PCC only (no anti-DNP) ([3]; AR-PCC 5 μM): None of these treatments elicited phagocytosis above basal levels
colony counts at 1 h, AR-PCC plus anti-DNP antibody ([3]; AR-PCC 5 μM, murine BMDMs): 89,000 CFU and 85,000 CFU
level of phagocytosis lower than that induced by K. pneumoniae antiserum and anti-MrkA treatment ([3]; plus anti-DNP): about 15%
